How the values were obtained:
[1] = tested on: bioavailable intracellular iron; assay: IRE-controlled luciferase reporter in 293T cells; assay type: cell-based, human; details: 12 hr
Protocol: (§1) 293T cells (10^5 cells/well of 12-well microplates) were seeded and transfected 20 hr later with a firefly luciferase (Luc)-expressing reporter plasmid and corresponding Renilla luciferase (Ren)-expressing reference plasmid using TransFectin™ (Bio-Rad, Hercules, Calif.). The bioavailable intracellular iron concentration was monitored using plasmids obtained from B. Galy and M. W. Hentze (EMBL, Heidelberg). Plasmid pcFIF-Luc contains the mouse ferritin H 5′-UTR with an iron response element (IRE) controlling Luc; pcFIRo-Ren is a similar construct expressing a mutated non-functional IRE fused to Ren. The activity of the HIV-1 promoter was monitored using the pNL4-3-Luc E molecular clone (Chen et al. (1994) J Virol 68: 654-660.), based on the recombinant infectious proviral clone that contains DNA from HIV isolates NY5 (5′ half) and IIIB (3′ half). This plasmid, obtained from D. Baltimore (Caltech, Pasadena), contains the Luc gene in place of 102 nucleotides from nef and 6 nucleotides from env. pCMV-Ren (Promega, Madison, Wis.) was used as reference for pNL4-3-Luc E. Compounds were added at the time of transfection. Cells were harvested 12 hr later, washed with phosphate-buffered saline, and lysed for the dual luciferase assay (Dual Luciferase™ Reporter Assay System; Promega, Madison, Wis.). Luc data were normalized to the Ren internal controls (Hogue et al. (2009) Retrovirology 6: 90.).
Both CPX and DEF are hydroxypyridinones with vicinally positioned oxygen atoms that mediate bidentate interaction with metal ions, in particular Fe^3+ (FIG. 11A). To evaluate the effect of drugs on the intracellular iron pool and on HIV-1 gene expression, transient expression assays in human 293T cells were exploited. Bioavailable intracellular iron was measured using a construct in which an iron-responsive element (IRE) controls luciferase expression, and HIV-specific transcription was assayed in parallel using an HIV-1 molecular clone that expresses luciferase reporter under the direction of the retroviral promoter. CPX and DEF were compared with the medicinal chelator deferoxamine (DFOX) and with the CPX fragment Agent P2, which consists of the metal-binding 1,2-HOPO domain of CPX but lacks the cyclohexyl moiety (FIG. 11A).

[2] = tested on: HIV-1 promoter; assay: Dual luciferase assay, HIV-1 molecular clone pNL4-3-LucE- and derived constructs in 293T cells; assay type: cell-based; details: for repression of luciferase expression (FF:Ren) from pNL4-3-LucE- / dose dependence of repression of expression from pNL4-3-LucE-: 12 hr post-transfection; for repression of luciferase expression (FF:Ren) from pNL4-3-LucE-: CPX 30 μM, DEF 250 μM, P2 30 μM; for inhibition of expression from construct VI: 3′-LTR replaced by SV40 poly(A) signal; for inhibition of FF expression from construct V: all open reading frames deleted except luciferase; for inhibition of FF expression from constructs III and IV: within 12 hr, Tat-deficient constructs complemented with Tat vector
Protocol: Plasmids were introduced into 2×10^5 293T cells by transfection using Lipofectamine 2000 (Invitrogen) according to the manufacturer's instructions. Compounds (such as CPX or DEF) were added simultaneously. Cells were harvested at 12 hr post-transfection, washed with PBS, lysed in 0.15 ml of 1× passive lysis buffer (Promega), and assayed for luciferase activity using the Promega dual luciferase reporter system according to the manufacturer's instructions. Jurkat cells (1×10^6 cells) were transfected using FuGENE 6 (Roche) according to the manufacturer's instructions and assayed in a similar fashion after pelleting.
as §1
293T cells were selected as a model system to explore the relationship between the drugs, eIF5A and HIV gene expression. These cells efficiently transcribe HIV-1 genes from molecular clones as well as subviral constructs, allowing for early detection of changes in HIV gene expression. To establish the system, assays were carried out to examine the effect of CPX and DEF on the expression of firefly luciferase (FF) from the HIV-1 molecular clone, pNL4-3-LucE-, engineered to carry the FF gene in place of the viral nef gene. The molecular clone was transfected into 293T cells together with the pCMV-Ren vector that expresses Renilla luciferase (Ren) from the cytomegalovirus (CMV) immediate early promoter as a control for transfection efficiency and non-specific effects of the compounds. Dual luciferase assays were conducted at 12 hr post-transfection and results are expressed as relative luciferase activity (FF:Ren). […] Assays therefore were carried out to characterize the action of CPX and DEF on eIF5A and HIV gene expression in 293T cells during the first 12 to 24 hr of drug treatment.

Structure (SMILES) | reduction of intracellular iron (IRE-dependent luciferase) ([1]; DFOX 15 μM) | repression of luciferase expression (FF:Ren) from pNL4-3-LucE- ([2]; DFOX 15 μM) | decrease of HIV-encoded luciferase expression ([2]; run parallel to IRE reporter (FIG. 11B), DFOX 15 μM) | reduction of intracellular iron (IRE-dependent luciferase) [1] [%] | inhibition of expression from construct VI [2] [%] | dose dependence of repression of expression from pNL4-3-LucE- [2] | inhibition of FF expression from construct V [2] [%] | inhibition of FF expression from constructs III and IV [2] [%]
Cc1ccn(O)c(=O)c1 [Agent P2, 1-hydroxy-4-methylpyridin-2[1H]-one] | no effect on either IRE-dependent or HIV-encoded luciferase expression | ineffective | no effect on either IRE-dependent or HIV-encoded luciferase expression |  |  |  |  | 
Cc1cc(C2CCCCC2)n(O)c(=O)c1 [CPX, 6-cyclohexyl-1-hydroxy-4-methylpyridin-2[1H]-one] |  | ~50% |  | 80 | ~50 | repressed expression from the HIV-1 molecular clone in a dose dependent fashion | ~50 | ~50
Cc1c(O)c(=O)ccn1C [DEF, 3-hydroxy-1,2-dimethylpyridin-4(1H)-one] |  | ~50% |  | ~60 | ~50 | repressed expression from the HIV-1 molecular clone in a dose dependent fashion | ~50 | ~50
